The values that follow are results of earlier work, collected in patent US20100120723A1, “PHARMACEUTICAL COMPOSITION COMPRISING A HOT-MELT GRANULATED LUBRICANT” (priority 2006, published 2010).

The structures appear in SMILES notation.

This series concerns bone resorption. The settings on record: animal models of bone resorption.

`CCCCCN(C)CCC(O)(P(=O)(O)O)P(=O)(O)O` [Sodium ibandronate]: the “potency relative to alendronate, risedronate, pamidronate and clodronate” value is “many times more potent”.
